In patent US20250177302A1, “LIPOSOME COMPOSITION AND LIPOSOME-CONTAINING PHARMACEUTICAL COMPOSITION” (Eisai R&D Management Co., Ltd., priority 2022, published 2025):
pIC50: −log10 of the molar value.

Experiments:
[1] = Measurement of blood drug concentration (2), change over time; format: in vivo; settings: mice, i.v. 2 mg/kg, 15 minutes, 4 hours and 24 hours after administration
Experimental: The blood was centrifuged for 10 minutes at about 1200 g, and the plasma was collected. The drug concentration of the harvested plasma was assayed using LC-MS/MS.
The liposome compositions of Examples 2, 5 and 8, and an aqueous solution of methanesulfonic acid salt of compound (I), were administered to mice by the same method as “4. Measurement of blood drug concentration (1)”, collecting blood at 15 minutes, 4 hours and 24 hours after administration, and measuring the change in blood drug concentration.

[2] = system: HUVEC proliferation in the presence of VEGF; assay: HUVEC 2D growth assay, cell proliferation by VEGF stimulation; format: cell-based; settings: Homo sapiens, 72 h, VEGF 20 ng/mL, 3 days, CellTiter-Glo
Experimental: (§1) 1. Measurement of Inhibiting Effect on Cell Proliferation by Vascular Endothelial Growth Factor (VEGF) or Basic Fibroblast Growth Factor (bFGF) Stimulation
(§2) The inhibiting effect of compound (I) on cell proliferation by VEGF or bFGF stimulation was evaluated by the following procedure based on HUVEC 2D growth assay.
(§3) Normal human umbilical vein endothelial cells (HUVEC) were isolated by a previously reported method (Shinseikagaku Jikken Koza, “Cell Culture Technology”, p.197-202). The cells were cultured overnight in a collagen I-coated flask (IWAKI 4143-010), with EGM-2 culture medium (Lonza Inc CC-3162) containing 10% Fetal Bovine Serum (FBS: Sigma 172012) in a 5% CO2 incubator (37° C.). On the following day, the culture supernatant was discarded and the medium was exchanged with EBM-2 culture medium containing 2% FBS, prior to further culturing overnight. On the following day, 2% FBS, and a HUVEC cell suspension prepared to 1.5×10^4 cells/mL with Human Endothelial Serum Free Medium (SFM: Gibco 11111-044) containing penicillin/streptomycin (FujiFilm-Wako Pure Chemical Industries) (hereunder referred to as “2% FBS-SFM”) were each added at 100 μL to each well of a 96-well plate (Corning 3904), and culturing was carried out overnight in a 5% CO2 incubator (37° C.). […]

[3] = system: HUVEC proliferation in the presence of bFGF; assay: HUVEC 2D growth assay, cell proliferation by bFGF stimulation; format: cell-based; settings: Homo sapiens, 72 h, bFGF 20 ng/mL, 3 days, CellTiter-Glo
Experimental: as §1, §2, §3

## CCNC(=O)Nc1ccc(Oc2ccnc3cc(OC)c(C(N)=O)cc23)cc1Cl.CS(=O)(=O)O [4-(3-Chloro-4-(ethylaminocarbonyl)aminophenoxy)-7-methoxy-6-quinolinecarboxamide methanesulfonate]
[1]
  Change in blood drug concentration (FIG. 1), in words: significantly lower after 24 hours

## CCNC(=O)Nc1ccc(Oc2ccnc3cc(OC)c(C(N)=O)cc23)cc1Cl [compound (I), 4-(3-chloro-4-(ethylaminocarbonyl)aminophenoxy)-7-methoxy-6-quinolinecarboxamide]
[2]
  pIC50: 8.76
[3]
  pIC50: 6.46
